Measurements: patent publication US7118895B2, “Process for producing aglycon by using diglycosidase and flavor-improved food containing the aglycon and converting agent to be used in the process” (Amano Enzyme Inc., priority 2000, dated 2006)
Values belong to the compound of their own block, whether it stands above or below them.

Tested on: Crude diglycosidase
Test: Examination of substrate concentration in the conversion into isoflavone aglycons by diglycosidase using soybean materials;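 as to Decomposition efficiency: ratio of each glycoside/aglycon within its isoflavone family: percent of the isoflavone family total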
Assay type: biochemical, Penicillium multicolor IAM7153
Method: Into 20 mM acetate buffer of pH 4.0 was suspended 0.1 g, 0.25 g, 0.5 g, 1.0 g, or 1.5 g of each of various soybean materials (roasted soy flour (manufactured by Fuji Shokuryo K.K.), soymilk (manufactured by Gitoh Shokuhin K.K.), defatted soybean (manufactured by Fuji Seiyu K.K.), concentrated soybean protein (manufactured by Fuji Seiyu K.K.)). The pH of the suspension was measured and the liquid volume was adjusted to 4.5 mL while the pH was adjusted to 4.0 with 1N hydrochloric acid. An enzyme solution wherein diglycosidase activity of crude diglycosidase was adjusted to 1.88 AU/mL was added thereto in an amount of 0.5 mL, whereby the final liquid volume was 5.0 mL. Namely, the ratio of the soybean material in the reaction mixture was 2%, 5%, 10%, 20%, or 30% (w/v). The whole was reacted at 55° C. under shaking. To 5 mL of the reaction mixture was added 7 mL of ethanol after 0, 1, 3, and 6 hours of the reaction. After ultrasonication, the mixture was thoroughly mixed. It was subjected to centrifugal separation at 2,000 rpm and room temperature for 5 minutes. Then, […] of the supernatant was placed in a 1.5 mL microtube and was subjected to centrifugal separation at 15,000 rpm and 4° C. for 10 minutes. The supernatant was filtered through a filter and each sample was suitably diluted by a factor of 1 to 6 depending on the substrate concentration. Fifty μL of the diluted solution was analyzed by HLPC (Tables 27 to 38).

Decomposition efficiency: ratio of each glycoside/aglycon within its isoflavone family (soymilk, substrate concentration 2%, heat treatment of enzyme no, reaction time 0 h): not detected
Decomposition efficiency: ratio of each glycoside/aglycon within its isoflavone family (soymilk, substrate concentration 2%, heat treatment of enzyme no, reaction time 1 h): not detected
Decomposition efficiency: ratio of each glycoside/aglycon within its isoflavone family (soymilk, substrate concentration 2%, heat treatment of enzyme no, reaction time 3 h): not detected
Decomposition efficiency: ratio of each glycoside/aglycon within its isoflavone family (soymilk, substrate concentration 2%, heat treatment of enzyme no, reaction time 6 h): not detected
Decomposition efficiency: ratio of each glycoside/aglycon within its isoflavone family (soymilk, substrate concentration 2%, heat treatment of enzyme yes, reaction time 6 h): not detected
Decomposition efficiency: ratio of each glycoside/aglycon within its isoflavone family (soymilk, substrate concentration 5%, heat treatment of enzyme no, reaction time 0 h): not detected
Decomposition efficiency: ratio of each glycoside/aglycon within its isoflavone family (soymilk, substrate concentration 5%, heat treatment of enzyme no, reaction time 1 h): not detected
Decomposition efficiency: ratio of each glycoside/aglycon within its isoflavone family (soymilk, substrate concentration 5%, heat treatment of enzyme no, reaction time 3 h): not detected
Decomposition efficiency: ratio of each glycoside/aglycon within its isoflavone family (soymilk, substrate concentration 5%, heat treatment of enzyme no, reaction time 6 h): not detected
Decomposition efficiency: ratio of each glycoside/aglycon within its isoflavone family (soymilk, substrate concentration 5%, heat treatment of enzyme yes, reaction time 6 h): not detected
Decomposition efficiency: ratio of each glycoside/aglycon within its isoflavone family (soymilk, substrate concentration 10%, heat treatment of enzyme no, reaction time 0 h): not detected
Decomposition efficiency: ratio of each glycoside/aglycon within its isoflavone family (soymilk, substrate concentration 10%, heat treatment of enzyme no, reaction time 1 h): not detected
Decomposition efficiency: ratio of each glycoside/aglycon within its isoflavone family (soymilk, substrate concentration 10%, heat treatment of enzyme no, reaction time 3 h): not detected
Decomposition efficiency: ratio of each glycoside/aglycon within its isoflavone family (soymilk, substrate concentration 10%, heat treatment of enzyme no, reaction time 6 h): not detected
Decomposition efficiency: ratio of each glycoside/aglycon within its isoflavone family (soymilk, substrate concentration 10%, heat treatment of enzyme yes, reaction time 6 h): not detected
Decomposition efficiency: ratio of each glycoside/aglycon within its isoflavone family (soymilk, substrate concentration 20%, heat treatment of enzyme no, reaction time 0 h): not detected
Decomposition efficiency: ratio of each glycoside/aglycon within its isoflavone family (soymilk, substrate concentration 20%, heat treatment of enzyme no, reaction time 1 h): not detected
Decomposition efficiency: ratio of each glycoside/aglycon within its isoflavone family (soymilk, substrate concentration 20%, heat treatment of enzyme no, reaction time 3 h): not detected
Decomposition efficiency: ratio of each glycoside/aglycon within its isoflavone family (soymilk, substrate concentration 20%, heat treatment of enzyme no, reaction time 6 h): not detected
Decomposition efficiency: ratio of each glycoside/aglycon within its isoflavone family (soymilk, substrate concentration 20%, heat treatment of enzyme yes, reaction time 6 h): not detected
Decomposition efficiency: ratio of each glycoside/aglycon within its isoflavone family (soymilk, substrate concentration 30%, heat treatment of enzyme no, reaction time 0 h): not detected
Decomposition efficiency: ratio of each glycoside/aglycon within its isoflavone family (soymilk, substrate concentration 30%, heat treatment of enzyme no, reaction time 1 h): not detected
Decomposition efficiency: ratio of each glycoside/aglycon within its isoflavone family (soymilk, substrate concentration 30%, heat treatment of enzyme no, reaction time 3 h): not detected
Decomposition efficiency: ratio of each glycoside/aglycon within its isoflavone family (soymilk, substrate concentration 30%, heat treatment of enzyme no, reaction time 6 h): not detected
Decomposition efficiency: ratio of each glycoside/aglycon within its isoflavone family (soymilk, substrate concentration 30%, heat treatment of enzyme yes, reaction time 6 h): not detected
Compound: COc1cc2c(=O)c(-c3ccc(O)cc3)coc2cc1O[C@@H]1O[C@H](COC(C)=O)[C@@H](O)[C@H](O)[C@H]1O [acetyl-glycitin]

Compound: O=c1c(-c2ccc(O)cc2)coc2cc(O[C@@H]3O[C@H](CO)[C@@H](O)[C@H](O)[C@H]3O)ccc12 [diadzin]
Decomposition efficiency: ratio of each glycoside/aglycon within its isoflavone family (concentrated soybean protein, substrate concentration 2%, heat treatment of enzyme no, reaction time 0 h): 52.8%
Decomposition efficiency: ratio of each glycoside/aglycon within its isoflavone family (concentrated soybean protein, substrate concentration 2%, heat treatment of enzyme no, reaction time 1 h): not detected
Decomposition efficiency: ratio of each glycoside/aglycon within its isoflavone family (concentrated soybean protein, substrate concentration 2%, heat treatment of enzyme no, reaction time 3 h): not detected
Decomposition efficiency: ratio of each glycoside/aglycon within its isoflavone family (concentrated soybean protein, substrate concentration 2%, heat treatment of enzyme no, reaction time 6 h): not detected
Decomposition efficiency: ratio of each glycoside/aglycon within its isoflavone family (concentrated soybean protein, substrate concentration 2%, heat treatment of enzyme yes, reaction time 6 h): 52.6%
Decomposition efficiency: ratio of each glycoside/aglycon within its isoflavone family (concentrated soybean protein, substrate concentration 5%, heat treatment of enzyme no, reaction time 0 h): 53.0%
Decomposition efficiency: ratio of each glycoside/aglycon within its isoflavone family (concentrated soybean protein, substrate concentration 5%, heat treatment of enzyme no, reaction time 1 h): not detected
Decomposition efficiency: ratio of each glycoside/aglycon within its isoflavone family (concentrated soybean protein, substrate concentration 5%, heat treatment of enzyme no, reaction time 3 h): not detected
Decomposition efficiency: ratio of each glycoside/aglycon within its isoflavone family (concentrated soybean protein, substrate concentration 5%, heat treatment of enzyme no, reaction time 6 h): not detected
Decomposition efficiency: ratio of each glycoside/aglycon within its isoflavone family (concentrated soybean protein, substrate concentration 5%, heat treatment of enzyme yes, reaction time 6 h): 53.5%
Decomposition efficiency: ratio of each glycoside/aglycon within its isoflavone family (concentrated soybean protein, substrate concentration 10%, heat treatment of enzyme no, reaction time 0 h): 52.8%
Decomposition efficiency: ratio of each glycoside/aglycon within its isoflavone family (concentrated soybean protein, substrate concentration 10%, heat treatment of enzyme no, reaction time 1 h): 2.2%
Decomposition efficiency: ratio of each glycoside/aglycon within its isoflavone family (concentrated soybean protein, substrate concentration 10%, heat treatment of enzyme no, reaction time 3 h): not detected
Decomposition efficiency: ratio of each glycoside/aglycon within its isoflavone family (concentrated soybean protein, substrate concentration 10%, heat treatment of enzyme no, reaction time 6 h): not detected
Decomposition efficiency: ratio of each glycoside/aglycon within its isoflavone family (concentrated soybean protein, substrate concentration 10%, heat treatment of enzyme yes, reaction time 6 h): 53.3%
Decomposition efficiency: ratio of each glycoside/aglycon within its isoflavone family (concentrated soybean protein, substrate concentration 20%, heat treatment of enzyme no, reaction time 0 h): 52.9%
Decomposition efficiency: ratio of each glycoside/aglycon within its isoflavone family (concentrated soybean protein, substrate concentration 20%, heat treatment of enzyme no, reaction time 1 h): 0.7%
Decomposition efficiency: ratio of each glycoside/aglycon within its isoflavone family (concentrated soybean protein, substrate concentration 20%, heat treatment of enzyme no, reaction time 3 h): not detected
Decomposition efficiency: ratio of each glycoside/aglycon within its isoflavone family (concentrated soybean protein, substrate concentration 20%, heat treatment of enzyme no, reaction time 6 h): not detected
Decomposition efficiency: ratio of each glycoside/aglycon within its isoflavone family (concentrated soybean protein, substrate concentration 20%, heat treatment of enzyme yes, reaction time 6 h): 52.8%
Decomposition efficiency: ratio of each glycoside/aglycon within its isoflavone family (concentrated soybean protein, substrate concentration 30%, heat treatment of enzyme no, reaction time 0 h): 49.2%
Decomposition efficiency: ratio of each glycoside/aglycon within its isoflavone family (concentrated soybean protein, substrate concentration 30%, heat treatment of enzyme no, reaction time 1 h): 2.7%
Decomposition efficiency: ratio of each glycoside/aglycon within its isoflavone family (concentrated soybean protein, substrate concentration 30%, heat treatment of enzyme no, reaction time 3 h): not detected
Decomposition efficiency: ratio of each glycoside/aglycon within its isoflavone family (concentrated soybean protein, substrate concentration 30%, heat treatment of enzyme no, reaction time 6 h): not detected
Decomposition efficiency: ratio of each glycoside/aglycon within its isoflavone family (concentrated soybean protein, substrate concentration 30%, heat treatment of enzyme yes, reaction time 6 h): 49.8%

Decomposition efficiency of genistin family in defatted soybean (substrate concentration 2%, heat treatment of enzyme no, reaction time 0 h): 37.7
Decomposition efficiency of genistin family in defatted soybean (substrate concentration 2%, heat treatment of enzyme no, reaction time 1 h): not detected
Decomposition efficiency of genistin family in defatted soybean (substrate concentration 2%, heat treatment of enzyme no, reaction time 3 h): not detected
Decomposition efficiency of genistin family in defatted soybean (substrate concentration 2%, heat treatment of enzyme no, reaction time 6 h): not detected
Decomposition efficiency of genistin family in defatted soybean (substrate concentration 2%, heat treatment of enzyme yes, reaction time 6 h): 38.7
Decomposition efficiency of genistin family in defatted soybean (substrate concentration 5%, heat treatment of enzyme no, reaction time 0 h): 40.0
Decomposition efficiency of genistin family in defatted soybean (substrate concentration 5%, heat treatment of enzyme no, reaction time 1 h): not detected
Decomposition efficiency of genistin family in defatted soybean (substrate concentration 5%, heat treatment of enzyme no, reaction time 3 h): not detected
Decomposition efficiency of genistin family in defatted soybean (substrate concentration 5%, heat treatment of enzyme no, reaction time 6 h): not detected
Decomposition efficiency of genistin family in defatted soybean (substrate concentration 5%, heat treatment of enzyme yes, reaction time 6 h): 41.8
Decomposition efficiency of genistin family in defatted soybean (substrate concentration 10%, heat treatment of enzyme no, reaction time 0 h): 42.4
Decomposition efficiency of genistin family in defatted soybean (substrate concentration 10%, heat treatment of enzyme no, reaction time 1 h): not detected
Decomposition efficiency of genistin family in defatted soybean (substrate concentration 10%, heat treatment of enzyme no, reaction time 3 h): not detected
Decomposition efficiency of genistin family in defatted soybean (substrate concentration 10%, heat treatment of enzyme no, reaction time 6 h): not detected
Decomposition efficiency of genistin family in defatted soybean (substrate concentration 10%, heat treatment of enzyme yes, reaction time 6 h): 44.3
Compound: O=c1c(-c2ccc(O)cc2)coc2cc(O[C@@H]3O[C@H](CO)[C@@H](O)[C@H](O)[C@H]3O)cc(O)c12 [genisitin]
